# Laboratory results reported in article PMC7889895, “Crystal structure of a photosynthetic LH1-RC in complex with its electron donor HiPIP” (Nature Communications, 2021).
# Target: T1, HiPIP (Thermochromatium tepidum, UniProt P80176)
# T1 construct: gene hip; native, purified from cells by DEAE chromatography in the reduced state; co-crystallised with native LH1-RC; with Photosynthetic reaction center cytochrome c subunit
# Assay: X-ray crystal structure of HiPIP:LH1-RC co-complex, […] Å
# Assay type: binding
# Conditions: pH 5; 4Fe-4S cluster ligated by Cys; HiPIP purified in reduced state; bound to LH1-RC
# T1 sequence (P80176 whole entry, other chains not shown): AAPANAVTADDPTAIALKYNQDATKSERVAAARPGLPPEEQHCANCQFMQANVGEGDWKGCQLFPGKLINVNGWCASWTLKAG
smiles,measurement,value
[S]12[Fe]3[S]4[Fe]1[S]1[Fe]2[S]3[Fe]41 [4Fe-4S cluster],"X-ray crystal structure of HiPIP:LH1-RC co-complex, 2.9 Å",Fe atoms in both hemes and the 4Fe-4S cluster were clearly resolved
